Measured values reported in ChEMBL document CHEMBL1201862, “PubChem BioAssay data set” (2004).
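How tested: cells in 96-well plates exposed to compound for 48 hours at five concentrations. Abbreviation: GI50, concentration required for 50% inhibition of growth.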 Active and inactive are the calls of the source. No stated cut-off is given here; in the data, active = GI50 up to about 1.1 µM and inactive = higher.

Legend:
Test in all cases: NCI anticancer screen, dose series, 48 h
[1] = tested on: UO-31
[2] = tested on: SK-MEL-2
[3] = tested on: 786-0
[4] = tested on: SF-268
[5] = tested on: ACHN
[6] = tested on: HCT-15
[7] = tested on: OVCAR-5
[8] = tested on: SNB-19
[9] = tested on: DU-145
[10] = tested on: MOLT-4
[11] = tested on: M14
[12] = tested on: RXF 393
[13] = tested on: MDA-MB-435
[14] = tested on: Hs-578T
[15] = tested on: SF-539
[16] = tested on: CAKI-1
[17] = tested on: LOX IMVI
[18] = tested on: MDA-N
[19] = tested on: PC-3
[20] = tested on: KM12

Compound | GI50 [1] | GI50 [2] | GI50 [3] | GI50 [4] | GI50 [5] | GI50 [6] [µM] | GI50 [7] | GI50 [8] | GI50 [9] | GI50 [10] | GI50 [11] | GI50 [12] | GI50 [13] | GI50 [14] | GI50 [15] | GI50 [16] | GI50 [17] | GI50 [18] | GI50 [19] | GI50 [20]
NNC(=O)Nc1nc2ccc(NN)cc2[nH]1 | 60.5 µM (inactive) | 44 µM (inactive) | 31.3 µM (inactive) | 37.2 µM (inactive) | 29 µM (inactive) | 31.3 | > 100 µM (inactive) | 58.5 µM (inactive) | 97.7 µM (inactive) | 11.6 µM (inactive) | 31.5 µM (inactive) | 25 µM (inactive) | 21.5 µM (inactive) | 33.7 µM (inactive) | 12.6 µM (inactive) | 41.7 µM (inactive) | 43.1 µM (inactive) | 28.2 µM (inactive) | 34.4 µM (inactive) | 19.5 µM (inactive)
NCCN(CCN)/[N+]([O-])=N/O | > 100 µM (inactive) | > 100 µM (inactive) | > 100 µM (inactive) | > 100 µM (inactive) | > 100 µM (inactive) | > 100 | > 100 µM (inactive) | > 100 µM (inactive) | > 100 µM (inactive) | > 100 µM (inactive) | 72.8 µM (inactive) | > 100 µM (inactive) | > 100 µM (inactive) | > 100 µM (inactive) | > 100 µM (inactive) | > 100 µM (inactive) | > 100 µM (inactive) | > 100 µM (inactive) | > 100 µM (inactive) | > 100 µM (inactive)
Cc1cc(C)n(-c2nc(-n3nc(C)cc3C)nc(-n3nc(C)cc3C)n2)n1 | 43.3 µM (inactive) | > 100 µM (inactive) | > 100 µM (inactive) | > 100 µM (inactive) | 38.6 µM (inactive) | 83.8 | > 100 µM (inactive) | > 100 µM (inactive) | > 100 µM (inactive) | > 100 µM (inactive) | > 100 µM (inactive) | > 100 µM (inactive) | > 100 µM (inactive) | 50.5 µM (inactive) | > 100 µM (inactive) | 39.2 µM (inactive) | > 100 µM (inactive) | > 100 µM (inactive) | > 100 µM (inactive) | > 100 µM (inactive)
Cc1cc(NC(=O)NC(=O)c2ccccc2NC(=O)CN(C)C)ccc1Oc1ncc(Br)cn1 | 8.55 µM (inactive) | 10.4 µM (inactive) | 3.52 µM (inactive) | 10 µM (inactive) | 18 µM (inactive) | 3.18 | 15.1 µM (inactive) | 9.77 µM (inactive) | 2.41 µM (inactive) | 4.95 µM (inactive) | 1.58 µM (inactive) | 1.98 µM (inactive) | 0.289 µM (active) | 1.6 µM (inactive) | 1.56 µM (inactive) | 3.68 µM (inactive) | 9.98 µM (inactive) | 0.221 µM (active) | 1.08 µM (active) | 1.36 µM (inactive)
COC(=O)C1OC(O[C@H]2CC[C@]3(C)[C@H]4CC=C5[C@@H]6CC(C)(C)CC[C@]6(C(=O)OC6OCC(O)C(O)C6OC6OC(C)C(OC7OCC(O)C(O)C7O)C(OC7OCC(O)(CO)C7O)C6O)[C@H](O)C[C@@]5(C)[C@]4(C)CC[C@H]3C2(C)C)C(O)C(O)C1O (stereo not given in full) | 1.81 µM (inactive) | 2.56 µM (inactive) | 7.45 µM (inactive) | 10 µM (inactive) | 3.31 µM (inactive) | 10.3 | 3.97 µM (inactive) | 5.57 µM (inactive) | 8.53 µM (inactive) | 5.13 µM (inactive) | 2.82 µM (inactive) | 10.9 µM (inactive) | 1.89 µM (inactive) | 11.9 µM (inactive) | 31.6 µM (inactive) | 4.69 µM (inactive) | 7.64 µM (inactive) | 2.01 µM (inactive) | 3.85 µM (inactive) | 2.88 µM (inactive)
O=C(N/N=C/c1ccc(Cl)cc1)c1c(Cl)c(Cl)c(Cl)c(Cl)c1-c1nc2ccccc2[nH]1 | 86.9 µM (inactive) | 93.1 µM (inactive) | 28.6 µM (inactive) | > 100 µM (inactive) | 64.6 µM (inactive) | 64.1 | > 100 µM (inactive) | > 100 µM (inactive) | > 100 µM (inactive) | 40.2 µM (inactive) | 86.5 µM (inactive) | 33 µM (inactive) | 74.3 µM (inactive) | 1.83 µM (inactive) | > 100 µM (inactive) | 46.2 µM (inactive) | 41.1 µM (inactive) | 56.8 µM (inactive) | 92.5 µM (inactive) | 8.36 µM (inactive)
O=C(O)c1ccc(OCc2ccccc2)c(Cl)c1 | > 100 µM (inactive) | > 100 µM (inactive) | > 100 µM (inactive) | > 100 µM (inactive) | > 100 µM (inactive) | > 100 | > 100 µM (inactive) | > 100 µM (inactive) | > 100 µM (inactive) | > 100 µM (inactive) | > 100 µM (inactive) | > 100 µM (inactive) | 80.5 µM (inactive) | > 100 µM (inactive) | > 100 µM (inactive) | 20.2 µM (inactive) | > 100 µM (inactive) | > 100 µM (inactive) | > 100 µM (inactive) | 30.3 µM (inactive)
